What was measured:
[1] = test system: PNN-HEK293 cells; test: Immunocytochemistry of PNN formation (WFA) with PNNi analogues; format: cell-based, human; details: 0.5 mM and 1 mM, 3 days in vitro
Description: To compare the efficacy of PNNi, JD009, and JD013 in reducing PNN formation, immunocytochemistry was conducted using the N-acetylgalactosamine-binding lectin WFA to label PNNs. PNN-HEK293 cells were exposed to 0.5 mM and 1 mM of the compounds for 3 days in vitro. […] Quantification of WFA fluorescence intensity per cell was derived in matched regions of interest (ROI) and normalising overall WFA fluorescence intensity to cell number.

[2] = Solubility in aqueous solution; format: physicochemical
From the text: The inventors hypothesised that since the hydroxyl functional groups required for activity were not altered when designing the PNNi analogues, they should retain the capacity to potently reduce PNNs.

solubility relative to PNNi [2] | Structure (SMILES) | PNN morphology and expression (WFA fluorescence intensity per cell) [1]
increased solubility | CN(C)Cc1cc(=O)oc2cc(O)ccc12 [JD009] | altered PNN expression
increased solubility | O=c1cc(CN2CCOCC2)c2ccc(O)cc2o1 [JD013, 7-hydroxy-4-[(morpholin-4-yl)methyl]-2H-1-benzopyran-2-one] | altered PNN expression

From patent US20220380331A1, “TREATMENT OF CONDITIONS OF THE NERVOUS SYSTEM” (priority 2019, published 2022)
